Results published in ChEMBL document CHEMBL1201862, “PubChem BioAssay data set” (2004).
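A five-concentration, 48-hour dose response in 96-well plates underlies each endpoint, interpolated linearly between surrounding concentrations. GI50: concentration for 50% inhibition of growth.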 Calls of active or inactive are those of the source. Rule as the data show it: active = GI50 up to about 1.1 µM and inactive = higher.

Columns and labels:
Experiment in all cases: growth of human tumour cells (NCI), 48 h
SF-268 = system: SF-268
A549 = system: A549
UO-31 = system: UO-31
SK-OV-3 = system: SK-OV-3
SW-620 = system: SW-620
K562 = system: K562
OVCAR-3 = system: OVCAR-3
HOP-62 = system: HOP-62
NCI-H522 = system: NCI-H522
NCI-H23 = system: NCI-H23
NCI-H460 = system: NCI-H460
Hs-578T = system: Hs-578T
EKVX = system: EKVX
SK-MEL-5 = system: SK-MEL-5
HT-29 = system: HT-29
SF-539 = system: SF-539
IGROV-1 = system: IGROV-1
HCC 2998 = system: HCC 2998
HL-60 = system: HL-60

| SMILES | GI50 (SF-268) | GI50 (A549) | GI50 (UO-31) | GI50 (SK-OV-3) | GI50 (SW-620) | GI50 (K562) | GI50 (OVCAR-3) | GI50 (HOP-62) | GI50 (NCI-H522) | GI50 (NCI-H23) | GI50 (NCI-H460) | GI50 (Hs-578T) | GI50 (EKVX) | GI50 (SK-MEL-5) | GI50 (HT-29) | GI50 (SF-539) | GI50 (IGROV-1) | GI50 (HCC 2998) | GI50 (HL-60) |
| --- | --- | --- | --- | --- | --- | --- | --- | --- | --- | --- | --- | --- | --- | --- | --- | --- | --- | --- | --- |
| Oc1ccc(/N=C/c2ccc(/C=N/c3ccc(O)cc3)cc2)cc1 | 15.5 µM (inactive) | 19.2 µM (inactive) | 15.2 µM (inactive) | 16.9 µM (inactive) | 17.5 µM (inactive) | 17.5 µM (inactive) | 16.3 µM (inactive) | 17.6 µM (inactive) | 17.7 µM (inactive) | 17.1 µM (inactive) | 24.4 µM (inactive) | 23.6 µM (inactive) | 32.1 µM (inactive) | 15 µM (inactive) | 19.8 µM (inactive) | 15.3 µM (inactive) | 20 µM (inactive) | – | – |
| COc1ccc(C(=O)c2c(C(C(=O)c3ccc(OC)cc3)C(=O)c3ccc(OC)cc3)n(C(=O)c3ccc(OC)cc3)c3ccccc23)cc1 | > 100 µM (inactive) | > 100 µM (inactive) | > 100 µM (inactive) | > 100 µM (inactive) | > 100 µM (inactive) | > 100 µM (inactive) | > 100 µM (inactive) | > 100 µM (inactive) | > 100 µM (inactive) | > 100 µM (inactive) | > 100 µM (inactive) | – | > 100 µM (inactive) | > 100 µM (inactive) | > 100 µM (inactive) | > 100 µM (inactive) | > 100 µM (inactive) | > 100 µM (inactive) | > 100 µM (inactive) |
| Cc1cc(NS(=O)(=O)c2ccc(NC(=O)c3cccn4c(=O)c5ccccc5nc34)cc2)no1 | > 100 µM (inactive) | > 100 µM (inactive) | > 100 µM (inactive) | > 100 µM (inactive) | > 100 µM (inactive) | > 100 µM (inactive) | > 100 µM (inactive) | > 100 µM (inactive) | > 100 µM (inactive) | > 100 µM (inactive) | > 100 µM (inactive) | – | > 100 µM (inactive) | > 100 µM (inactive) | > 100 µM (inactive) | > 100 µM (inactive) | > 100 µM (inactive) | > 100 µM (inactive) | > 100 µM (inactive) |
| COc1ccc(C2=CC(c3ccccc3)n3nnnc3N2)cc1 (stereo unspecified) | 74 µM (inactive) | > 100 µM (inactive) | > 100 µM (inactive) | > 100 µM (inactive) | > 100 µM (inactive) | > 100 µM (inactive) | > 100 µM (inactive) | 40.6 µM (inactive) | > 100 µM (inactive) | > 100 µM (inactive) | > 100 µM (inactive) | 76.9 µM (inactive) | – | > 100 µM (inactive) | > 100 µM (inactive) | > 100 µM (inactive) | > 100 µM (inactive) | – | > 100 µM (inactive) |
| O=C1OC(CC(=O)c2ccc(Cl)c(Cl)c2)C(Cl)=C1Cl (stereo unspecified) | > 100 µM (inactive) | > 100 µM (inactive) | > 100 µM (inactive) | > 100 µM (inactive) | > 100 µM (inactive) | 38.8 µM (inactive) | > 100 µM (inactive) | > 100 µM (inactive) | 22.5 µM (inactive) | > 100 µM (inactive) | > 100 µM (inactive) | – | > 100 µM (inactive) | > 100 µM (inactive) | > 100 µM (inactive) | 74.5 µM (inactive) | > 100 µM (inactive) | > 100 µM (inactive) | 82 µM (inactive) |
| O=c1[nH]c(=O)n(C2OC(CO)C(O)C2O)cc1/N=N/NCc1ccccc1 (stereo unspecified) | > 100 µM (inactive) | > 100 µM (inactive) | > 100 µM (inactive) | > 100 µM (inactive) | > 53.5 µM (inactive) | > 71.9 µM (inactive) | > 100 µM (inactive) | > 100 µM (inactive) | > 100 µM (inactive) | > 100 µM (inactive) | > 69.2 µM (inactive) | – | > 100 µM (inactive) | > 100 µM (inactive) | > 100 µM (inactive) | > 100 µM (inactive) | > 100 µM (inactive) | > 100 µM (inactive) | > 64.3 µM (inactive) |
| CCCNC(=O)c1cc2ccccc2cc1C(=O)OC | > 100 µM (inactive) | > 100 µM (inactive) | 58.5 µM (inactive) | > 100 µM (inactive) | > 100 µM (inactive) | > 100 µM (inactive) | > 100 µM (inactive) | > 100 µM (inactive) | > 100 µM (inactive) | > 100 µM (inactive) | > 100 µM (inactive) | – | > 100 µM (inactive) | > 100 µM (inactive) | > 100 µM (inactive) | > 100 µM (inactive) | > 100 µM (inactive) | > 100 µM (inactive) | > 100 µM (inactive) |
| [O-][S+](Cc1cc2c(cc1Br)OCO2)c1ccccc1 (stereo unspecified) | 59.2 µM (inactive) | > 100 µM (inactive) | 47.5 µM (inactive) | > 100 µM (inactive) | 15.4 µM (inactive) | 27.5 µM (inactive) | 35.3 µM (inactive) | > 100 µM (inactive) | 21.6 µM (inactive) | 68.2 µM (inactive) | 41.4 µM (inactive) | – | > 100 µM (inactive) | 61.5 µM (inactive) | 34 µM (inactive) | 32.7 µM (inactive) | 39.4 µM (inactive) | > 100 µM (inactive) | 21.4 µM (inactive) |
| CCN(CC)C1CC(O[C@H]2C[C@](O)(C(=O)CO)Cc3c(O)c4c(c(O)c32)C(=O)c2c(OC)cccc2C4=O)OC(C)C1O (stereo partly specified) | 0.047 µM (active) | 0.0395 µM (active) | 0.0604 µM (active) | 0.299 µM (active) | < 0.0219 µM (active) | 0.0264 µM (active) | 0.126 µM (active) | 0.0887 µM (active) | < 0.0256 µM (active) | 0.0491 µM (active) | < 0.019 µM (active) | – | 0.082 µM (active) | 0.0508 µM (active) | < 0.0252 µM (active) | 0.0461 µM (active) | 0.0859 µM (active) | 0.0948 µM (active) | 0.106 µM (active) |
| Cc1nc(-c2ccccc2)cc2c1c(=O)oc1ccccc12 | > 100 µM (inactive) | > 100 µM (inactive) | > 100 µM (inactive) | > 100 µM (inactive) | > 100 µM (inactive) | > 100 µM (inactive) | > 100 µM (inactive) | > 100 µM (inactive) | > 100 µM (inactive) | > 100 µM (inactive) | > 100 µM (inactive) | – | > 100 µM (inactive) | > 100 µM (inactive) | > 100 µM (inactive) | > 100 µM (inactive) | > 100 µM (inactive) | > 100 µM (inactive) | > 100 µM (inactive) |
| COC(=O)C1=C(C)N(NC(=O)OC(C)(C)C)C(=O)C1=P(c1ccccc1)(c1ccccc1)c1ccccc1 | > 100 µM (inactive) | > 100 µM (inactive) | > 100 µM (inactive) | > 100 µM (inactive) | > 100 µM (inactive) | 73.5 µM (inactive) | 66.8 µM (inactive) | > 100 µM (inactive) | 75.5 µM (inactive) | > 100 µM (inactive) | > 100 µM (inactive) | – | > 100 µM (inactive) | > 100 µM (inactive) | > 100 µM (inactive) | > 100 µM (inactive) | > 100 µM (inactive) | > 100 µM (inactive) | 42.4 µM (inactive) |
